The values below are quoted from earlier work in patent US6984402B2, “Chrono delivery formulations and method of treating atrial fibrillation” (Elite Laboratories, Inc., priority 2000, dated 2006).

As to `COc1ccc([C@@H]2Sc3ccccc3N(CCN(C)C)C(=O)[C@@H]2OC(C)=O)cc1` [diltiazem], the half-life in blood (humans) was 3 to 4 h. For the setting “oral, compared with intravenous administration”, the absolute bioavailability is 40%.
